Where “and” joins values, the source holds several entries; their conditions need not be identical. Equal values may be shown once. Read-outs that look alike come from different tables or passages of the source.
Key:
OATP1B3 = test system: OATP1B3; design: method as in protocol Section 1.4.1.2; details: ref protocol Section 1.4.1.2; cited from earlier work
[1] = design: method as in protocol Section 1.4.1.2; details: ref protocol Section 1.4.1.2; cited from earlier work
[2] = cited from earlier work
[3] = design: method as in protocol Section 1.4.1.2; details: 300 mg/kg/day (AUC 279 g·h/mL); ref protocol Section 1.4.1.2; cited from earlier work
[4] = design: method as in AI468001 and AI468002; details: same doses and formulation; ref AI468001 and AI468002; listed as BMS-955176; cited from earlier work
[5] = design: method as in protocol Section 1.4.1.2; details: 80 mg/kg/day, ref protocol Section 1.4.1.2, cited from earlier work
HIV-1 [6] = test system: HIV-1; design: method as in protocol Section 1.4.1.2; details: with representative drugs from NRTI, NNRTI, PI, and INI classes; ref protocol Section 1.4.1.2; cited from earlier work
HIV-1 [7] = details: ref AI468002, cited from earlier work
[8] = target: broad range of enzymes, transporters, and receptors, including cardiac ion channels; design: method as in protocol Section 1.4.1.2; details: ref protocol Section 1.4.1.2; read-out: IC50 or EC50 for in vitro off-target interactions; cited from earlier work
[9] = design: method as in protocol Section 1.4.1.2; details: 100% human serum; ref protocol Section 1.4.1.2; listed as BMS-955176; cited from earlier work
CYPs = test system: CYPs; design: method as in protocol Section 1.4.1.2; details: ref protocol Section 1.4.1.2; cited from earlier work
CYP1A2, CYP2B6, CYP3A4 = test system: CYP1A2, CYP2B6, CYP3A4; design: method as in protocol Section 1.4.1.2; details: ref protocol Section 1.4.1.2; cited from earlier work
[10] = cited from earlier work; remark: listed apart in the source
HIV-1 [11] = details: 40% HS supplemented with additional human serum albumin; ref protocol Section 1.4.1.2; cited from earlier work
HIV-1 protease = test system: HIV-1 protease; design: method as in protocol Section 1.4.1.2; details: ref protocol Section 1.4.1.2; cited from earlier work
[12] = design: method as in Study AI468049; details: 180 mg MC tablet, preliminary, ref Study AI468049, cited from earlier work
[13] = design: method as in protocol Section 1.4.1.2; details: local lymph node assay in the mouse; ref protocol Section 1.4.1.2; cited from earlier work
[14] = 10 mg/kg/day; ref protocol Section 1.4.1.2; cited from earlier work
[15] = BMS-955176 40 mg SDD suspension and TDF at steady state; ref Study AI468005; cited from earlier work
[16] = design: method as in Study AI468034; details: 120 mg MC tablet; ref Study AI468034; cited from earlier work
[17] = test system: human immunodeficiency virus type-2 (HIV-2) isolates; design: method as in protocol Section 1.4.1.2; details: active against 1 of 3 HIV-2 isolates; ref protocol Section 1.4.1.2; cited from earlier work
CYP3A4 = test system: CYP3A4; design: method as in protocol Section 1.4.1.2; details: ref protocol Section 1.4.1.2; cited from earlier work
[18] = Intensive PK, non-compartmental analysis and dose proportionality; assay type: in vivo, HIV-1-infected adults
Description: Due to the EFV component of the blinded drug regimens, administration of study drug required both morning and evening dosing,12 hours apart. […] All bioanalytical analyses were conducted by PPD® Laboratories using validated high-performance liquid chromatography/mass spectroscopy assays. Intensive plasma GSK3532795 concentrations were analyzed by non-compartmental analysis using the actual sampling times in WinNonlin version 6.3.0 (Pharsight, St. Louis, Missouri, USA). […] To assess the dose proportionality of GSK3532795 when co-administered with TDF/FTC, a mixed-effect model with log-transformed dose as the fixed effect and each participant as the random effect was used to fit a power model in SAS version 9.1.3.

[19] = Part A, clade B, 10 days monotherapy, 5 mg

SMILES: C=C(C)[C@@H]1CC[C@]2(NCCN3CCS(=O)(=O)CC3)CC[C@]3(C)[C@H](CC[C@@H]4[C@@]5(C)CC=C(c6ccc(C(=O)O)cc6)C(C)(C)[C@@H]5CC[C@]43C)[C@@H]12 [GSK3532795]
- IC50 (OATP1B3): 4 µM
- Phototoxicity, mutagenicity, clastogenicity in vitro [1]: not phototoxic, mutagenic, or clastogenic
- Safety in Phase 1 ([2]; SAD 10-120 mg, MAD 10-80 mg QD for 14-28 days, ref Study AI468001): No SAEs, deaths, or discontinuations related to study drug occurred
- Half life (T-HALF) ([2]; healthy subjects, ref Study AI468001): approximately 35 hours
- Increase in BMS-955176 AUC(TAU) ([2]; multiple dose with daily 400 mg ATV and a standard meal for 14 days, ref AI468001): ~ 25%
- Time to steady state ([2]; multiple-dose once daily, ref Study AI468001): approximately 7 days
- Increase in Cmax and AUC(INF) with dose ([2]; single dose 10-120 mg, multiple dose 10-80 mg QD, ref Study AI468001): slightly less than dose-proportional
- Increase in BMS-955176 AUC(INF) ([2]; single dose following two doses of 100 mg RTV, ref AI468001): ~48%
- Genotoxicity in rat micronucleus assay [3]: not genotoxic
- Exposures lower in HIV-1-infected subjects compared to healthy subjects [4]: 35%
- AUC [5]: 3.26 gh/mL
- Developmental toxicity classification ([5]; rabbits): not a developmental toxicant
- Effect of 2-drug combinations (HIV-1 [6]): additive to synergistic effects
- Maximum decline log10 HIV-1 RNA, max (HIV-1 [7]; Part A, 10 mg): -1.76 Log10
- Maximum decline log10 HIV-1 RNA, mean (HIV-1 [7]; Part A, 10 mg): -1.05 Log10
- Maximum decline log10 HIV-1 RNA, median (HIV-1 [7]; Part A, 10 mg): -0.976 Log10
- Maximum decline log10 HIV-1 RNA, min (HIV-1 [7]; Part A, 10 mg): -0.64 Log10
- Maximum decline log10 HIV-1 RNA, max (HIV-1 [7]; Part A, 20 mg): -2.12 Log10
- Maximum decline log10 HIV-1 RNA, mean (HIV-1 [7]; Part A, 20 mg): -1.17 Log10
- Maximum decline log10 HIV-1 RNA, median (HIV-1 [7]; Part A, 20 mg): -1.115 Log10
- Maximum decline log10 HIV-1 RNA, min (HIV-1 [7]; Part A, 20 mg): -0.13 Log10
- Maximum decline log10 HIV-1 RNA, max (HIV-1 [7]; Part A, 40 mg): -1.88 Log10
- Maximum decline log10 HIV-1 RNA, mean (HIV-1 [7]; Part A, 40 mg): -1.55 Log10
- Maximum decline log10 HIV-1 RNA, median (HIV-1 [7]; Part A, 40 mg): -1.701 Log10
- Maximum decline log10 HIV-1 RNA, min (HIV-1 [7]; Part A, 40 mg): -0.93 Log10
- Maximum decline log10 HIV-1 RNA, max (HIV-1 [7]; Part A, 80 mg): -1.82 Log10
- Maximum decline log10 HIV-1 RNA, mean (HIV-1 [7]; Part A, 80 mg): -1.52 Log10
- Maximum decline log10 HIV-1 RNA, median (HIV-1 [7]; Part A, 80 mg): -1.555 Log10
- Maximum decline log10 HIV-1 RNA, min (HIV-1 [7]; Part A, 80 mg): -1.04 Log10
- Maximum decline log10 HIV-1 RNA, max (HIV-1 [7]; Part A, 120 mg): -2.07 Log10
- Maximum decline log10 HIV-1 RNA, mean (HIV-1 [7]; Part A, 120 mg): -1.53 Log10
- Maximum decline log10 HIV-1 RNA, median (HIV-1 [7]; Part A, 120 mg): -1.654 Log10
- Maximum decline log10 HIV-1 RNA, min (HIV-1 [7]; Part A, 120 mg): -0.83 Log10
- Maximum decline log10 HIV-1 RNA, max (HIV-1 [7]; [19]): -0.78 Log10
- Maximum decline log10 HIV-1 RNA, mean (HIV-1 [7]; [19]): -0.49 Log10
- Maximum decline log10 HIV-1 RNA, median (HIV-1 [7]; [19]): -0.498 Log10
- Maximum decline log10 HIV-1 RNA, min (HIV-1 [7]; [19]): -0.22 Log10
- Maximum decline log10 HIV-1 RNA, max (HIV-1 [7]; Part C, clade C, 40 mg): -2.03 Log10
- Maximum decline log10 HIV-1 RNA, median (HIV-1 [7]; Part C, clade C, 40 mg): -1.285 Log10
- Maximum decline log10 HIV-1 RNA, min (HIV-1 [7]; Part C, clade C, 40 mg): -1.04 Log10
- Maximum decline log10 HIV-1 RNA, mean (HIV-1 [7]; Part C, clade C, 10 days monotherapy, 40 mg): -1.5 Log10
- Safety in Phase 2a (HIV-1 [7]; alone or with ATV ± RTV for 10-28 days, preliminary): no deaths, SAEs, or AEs leading to discontinuation
- Median maximal reductions in HIV-1 RNA (HIV-1 [7]; doses 40 mg SDD once daily and above, clade B and clade C): > 1 log10
- IC50 [8]: > 5 µM
- Protein binding [9]: 86% and 86.1%
- Time-dependent inhibition of CYPs (CYPs): No
- Induction of CYP1A2, CYP2B6, or CYP3A4 (CYP1A2, CYP2B6, CYP3A4): not an inducer
- AUC at developmental NOAEL ([10]; 30 mg/kg/day, ref protocol Section 1.4.1.2): 114 gh/mL
- Developmental NOAEL ([10]; rat, in vivo): 30 mg/kg/day
- Developmental toxicity classification ([10]; rats, ref protocol Section 1.4.1.2): not a selective developmental toxicant
- Reduction of antiviral activity (HIV-1 [11]): approximately 4 fold
- Direct inhibition of HIV-1 protease (HIV-1 protease): does not directly inhibit HIV-1 protease
- Increase in Cmax relative to fasted ([12]; all three meal types): approximately 2 fold
- Increase in AUC relative to fasted ([12]; high fat meal): 2.5 fold
- Increase in AUC relative to fasted ([12]; standard meal): 2.1 fold
- Skin sensitization [13]: not a skin sensitizer
- AUC at lowest dose with effects [14]: 71 gh/mL
- Impact of coadministration on exposures [15]: neither BMS-955176 nor TDF exposures were meaningfully impacted
- Bioavailability lower relative to 80 mg SDD suspension [16]: approximately 23%
- Impact of high fat meal on Cmax [16]: negligible impact
- Increase in C24 with a high fat meal relative to fasted [16]: approximately 70%
- EC50 [17]: 0.015 µM
- IC50 (CYP3A4): 32 µM
- Increase in systemic exposure with dose ([18]; dose range 60–180 mg, with food and TDF/FTC): less than dose-proportional
- Time at which median steady-state plasma concentrations reached peak ([18]; multiple doses 60, 120 or 180 mg with food and TDF/FTC): 4–5 hours post-dose
